The values that follow are results of earlier work, collected in US8273874B2, “Method of dynamic nuclear polarisation (DNP) and compounds and compositions for use in the method” (GE Healthcare AS, priority 2006, dated 2012).

The structures appear in SMILES notation.

The conditions of this data set: human full blood at 37° C.

On to `CC(=O)[13C](=O)O` [^13C1-pyruvate], for which the T1 relaxation result was “about 42 s”.
